Read-outs that look alike come from different tables or passages of the source.
Assays:
[1] = Animal biodistribution of 99mTc complexes in guinea pigs; format: in vivo, guinea pig;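 also: Heart, liver and kidney plus urine values are percent of the injected material, background-corrected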
Protocol: (§1) Percentage biodistribution of injected material was calculated (after correction for background) for all organs using the formula: [formula]
(§2) Since only samples of muscle and blood were taken, the percentage in these tissues was calculated assuming blood and muscle to represent 5.8 and 43% of total animal weight respectively using the formula: [formula]
Since only samples of muscle and blood were taken, the percentage in these tissues was calculated assuming blood and muscle to represent 5.8 and 43% of total animal weight respectively using the formula: [formula] where CF= 0.058 for blood

[2] = rat, in vivo
Protocol: (§3) In vivo biodistribution: 0.1 ml Tc^99m prep was injected i.v. into a laterial tail vein of 6 anaesthetised rats.
(§4) At 2 minutes and 60 minutes post-injection, 3 rats were sacrificed by decapitation, bled from the neck and dissected. The following organs were removed at dissection: kidney; bladder(+ urine), lung, liver, spleen, stomach, small intestine, large intestine, brain (weighed), heart (weighed), thyroid and samples of blood (weighed) and muscle (weighed), the residual carcass and the tail (injection site). Subsequently samples were counted in an automatic twin crystal gamma counter.
as §1, §2

[3] = Animal biodistribution of 99mTc complexes in rats (i.v. injection, organ counting); settings: Table VII, nitrosyl complex [Tc(NO)Cl2 L2 ]^- of the ligand, 60 min p.i.
Protocol: as §3, §4, §1, §2

[4] = guinea pig, 2 min p.i. in vivo, mean
[5] = guinea pig, 60 min p.i. in vivo, mean
[6] = Table VIII, [TcL3 ]^+ complex of the ligand, guinea pigs, 2 min p.i.
[7] = Table VIII, [TcL3 ]^+ complex of the ligand, guinea pigs, 60 min p.i.

COCC(COC)(CP(C)C)CP(C)C.COCC(COC)(CP(C)C)CP(C)C.O=[N][99Tc+][Cl].[Cl-] [Example 19]
Blood [1, 4]: 3.77 % injected dose/organ | Heart [1, 4]: 1.36 % injected dose/organ | Heart/Blood Counts/Gram ratio [1, 4]: 8.66 | Heart/Liver Counts/Gram ratio [1, 4]: 2.20 | Heart/Lung Counts/Gram ratio [1, 4]: 0.9 | Heart/Muscle Counts/Gram ratio [1, 4]: 4.65 | Kidney + Urine [1, 4]: 15.5 % injected dose/organ | Liver [1, 4]: 11.0 % injected dose/organ | Liver + GI [1, 4]: 35.0 % injected dose/organ | Lung [1, 4]: 1.57 % injected dose/organ | Muscle [1, 4]: 38.6 % injected dose/organ | Blood [1, 5]: 0.48 % injected dose/organ | Heart [1, 5]: 1.05 % injected dose/organ | Heart/Blood Counts/Gram ratio [1, 5]: 49.6 | Heart/Liver Counts/Gram ratio [1, 5]: 17.5 | Heart/Lung Counts/Gram ratio [1, 5]: 2.0 | Heart/Muscle Counts/Gram ratio [1, 5]: 4.77 | Kidney + Urine [1, 5]: 18.1 % injected dose/organ | Liver [1, 5]: 0.92 % injected dose/organ | Liver + GI [1, 5]: 45.9 % injected dose/organ | Lung [1, 5]: 0.52 % injected dose/organ | Muscle [1, 5]: 30.6 % injected dose/organ | Blood ([2]; 2 min): 2.05 % injected dose/organ | Heart ([2]; 2 min): 1.56 % injected dose/organ | Heart/Blood Counts/Gram ratio ([2]; 2 min): 10.9 | Heart/Liver Counts/Gram ratio ([2]; 2 min): 1.56 | Heart/Lung Counts/Gram ratio ([2]; 2 min): 1.8 | Heart/Muscle Counts/Gram ratio ([2]; 2 min): 4.57 | Kidney + Urine ([2]; 2 min): 8.94 % injected dose/organ | Liver ([2]; 2 min): 13.2 % injected dose/organ | Liver + GI ([2]; 2 min): 35.3 % injected dose/organ | Lung ([2]; 2 min): 1.33 % injected dose/organ | Muscle ([2]; 2 min): 36.2 % injected dose/organ | Blood ([2]; 60 min): 0.14 % injected dose/organ | Heart ([2]; 60 min): 1.47 % injected dose/organ | Heart/Blood Counts/Gram ratio ([2]; 60 min): 192 | Heart/Liver Counts/Gram ratio ([2]; 60 min): 17.2 | Heart/Lung Counts/Gram ratio ([2]; 60 min): 3.6 | Heart/Muscle Counts/Gram ratio ([2]; 60 min): 5.6 | Kidney + Urine ([2]; 60 min): 11.0 % injected dose/organ | Liver ([2]; 60 min): 1.03 % injected dose/organ | Liver + GI ([2]; 60 min): 45.5 % injected dose/organ | Lung ([2]; 60 min): 0.68 % injected dose/organ | Muscle ([2]; 60 min): 28.2 % injected dose/organ

CP(C)CCP(C)C [dmpe, di(dimethylphosphino) ethane, reference compound]
Heart [1, 6]: 0.53 % injected dose | Heart/Blood Counts/Gram ratio [1, 6]: 0.42 | Heart/Liver Counts/Gram ratio [1, 6]: 0.30 | Heart/Muscle Counts/Gram ratio [1, 6]: 6.11 | Liver [1, 6]: 38.0 % injected dose | Heart [1, 7]: 0.38 % injected dose | Heart/Blood Counts/Gram ratio [1, 7]: 3.27 | Heart/Liver Counts/Gram ratio [1, 7]: 0.13 | Heart/Muscle Counts/Gram ratio [1, 7]: 4.12 | Liver [1, 7]: 36.8 % injected dose | Heart/Liver Counts/Gram ratio [3]: 1.52

Reference: US4916214A, “Cationic complexes of technetium-99m” (Amersham International plc., priority 1987, dated 1990)
